Drawing on PubChem BioAssay (NCI), this text covers TGI and GI50 for eight compounds.

Values joined by “and” are separate entries in the source; they are usually repeats but may differ in a detail not shown here. Equal entries are not always repeated.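 Five concentrations, 48 hours, 96-well plates. The concentration for 50% growth inhibition is given as GI50. TGI is the concentration that stops growth completely.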 A value given as a limit tells only on which side of the number the result lay.

Among the test systems are HOP-62 NSCLC; OVCAR-5 ovarian; SF-539 CNS; SNB-19 CNS; KM12 colon; NCI-H522 lung; TK-10 renal; CCRF-CEM leukemia; SK-MEL-5 melanoma.
Test in all cases: NCI anticancer screen, dose series, 48 h

With `CC(O)CN1C(=O)NC(Cc2ccccc2)C1=O` (stereo unspecified), the TGI in the test with HOP-62 NSCLC was 86.3 µM; with OVCAR-5 ovarian it was greater than 100 µM; in the test with SF-539 CNS it was greater than 100 µM; with SNB-19 CNS, greater than 100 µM; in the test on KM12 colon, greater than 100 µM; in the test with NCI-H522 lung, greater than 100 µM. Also, in the test on TK-10 renal, the TGI is greater than 100 µM.
For the compound `COC(=O)C(Cc1ccccc1)N/C=C\C(=O)c1ccc(Cl)cc1` (stereo unspecified), the GI50 with HOP-62 NSCLC was 25.1 µM; with OVCAR-5 ovarian, 24.9 µM; with CCRF-CEM leukemia it was 39.7 µM; in the test with SK-MEL-5 melanoma it was 19.3 µM; in the test with SF-539 CNS, 18.6 µM; with SNB-19 CNS it was 38 µM. Further, the GI50 in the test with KM12 colon was 21.2 µM; in the test on NCI-H522 lung, 32.5 µM. Moreover, the TGI is 67.6 µM in the test on HOP-62 NSCLC; 74.4 µM in the test on OVCAR-5 ovarian; greater than 100 µM in the test with CCRF-CEM leukemia; 33.5 µM in the test on SK-MEL-5 melanoma; 45.1 µM with SF-539 CNS; greater than 100 µM in the test with SNB-19 CNS. For the same compound, the TGI is 47.1 µM in the test with KM12 colon and greater than 100 µM in the test on NCI-H522 lung.
In the case of `CC(=O)O[C@H]1C(=O)[C@@]2(C)[C@H]([C@H](OC(=O)c3ccccc3)[C@]3([O-])C[C@H](OC(=O)[C@H]([O-])[C@@H](NC(=O)c4ccccc4)c4ccccc4)C(C)=C1C3(C)C)[C@]1(OC(C)=O)CO[C@@H]1C[C@@H]2[O-].[Fe+3]`, the TGI in the test with HOP-62 NSCLC was 10.5 µM and 48.8 µM; in the test with OVCAR-5 ovarian, 11.1 µM and > 100 µM; with CCRF-CEM leukemia it was 65 µM and 68.9 µM; in the test with SK-MEL-5 melanoma, 65 µM and 19.6 µM; with SF-539 CNS, 0.549 µM and 0.486 µM; in the test with SNB-19 CNS it was 65 µM and > 100 µM. The TGI with KM12 colon was 0.21 µM and 1.21 µM; with NCI-H522 lung, 12.8 µM; in the test with TK-10 renal, 65 µM and > 100 µM. The GI50 in the test on OVCAR-5 ovarian is 0.88 µM; with CCRF-CEM leukemia, 0.249 µM and 0.876 µM; with SK-MEL-5 melanoma, 0.0521 µM and 0.0683 µM; in the test with SF-539 CNS it was 0.029 µM and 0.0519 µM; with SNB-19 CNS it was 0.281 µM and 0.534 µM; in the test on KM12 colon it was 0.0324 µM and 0.0623 µM. The GI50 in the test with NCI-H522 lung is 0.0385 µM; in the test on TK-10 renal, 0.591 µM and 0.658 µM.
On to `COc1ccc2c(c1)C=CC(C#N)N2C(=O)c1ccccc1` (stereo unspecified), for which the GI50 in the test on HOP-62 NSCLC, in the test on CCRF-CEM leukemia, with SK-MEL-5 melanoma, with SF-539 CNS, with SNB-19 CNS and with KM12 colon was less than 0.01 µM each time. Also, the GI50 with NCI-H522 lung is less than 0.01 µM; with TK-10 renal, 33.7 µM. Further, the TGI in the test on HOP-62 NSCLC was greater than 100 µM; in the test on OVCAR-5 ovarian it was greater than 100 µM; in the test on CCRF-CEM leukemia it was greater than 100 µM; in the test with SK-MEL-5 melanoma, 4.68 µM; in the test with SF-539 CNS, 0.0238 µM; in the test on SNB-19 CNS it was greater than 100 µM. The TGI was greater than 100 µM in the test on KM12 colon, 0.188 µM with NCI-H522 lung and greater than 100 µM with TK-10 renal.
On to `CNC(=O)c1cc(Oc2ccc(NC(=O)Nc3ccc(Cl)c(OC(F)(F)F)c3)c(F)c2)ccn1`, for which the GI50 in the test on HOP-62 NSCLC was 2.49 µM; in the test with OVCAR-5 ovarian, 3.93 µM; in the test with CCRF-CEM leukemia, 1.94 µM; in the test on SK-MEL-5 melanoma it was 1.63 µM; with SF-539 CNS, 3.38 µM; in the test with SNB-19 CNS, 3.06 µM. For the same compound, the GI50 was 1.17 µM in the test with KM12 colon, 0.971 µM with NCI-H522 lung and 2.44 µM in the test with TK-10 renal. Besides, the TGI is 29.3 µM in the test with HOP-62 NSCLC; greater than 33.2 µM in the test on OVCAR-5 ovarian; greater than 33.2 µM in the test with CCRF-CEM leukemia; 5.46 µM with SK-MEL-5 melanoma; 8.13 µM in the test on SF-539 CNS; 20.7 µM with SNB-19 CNS. For the same compound, the TGI in the test with KM12 colon was 9.09 µM; with NCI-H522 lung, 14.8 µM; in the test with TK-10 renal, greater than 33.2 µM.
Regarding `CN1CCN(C)C1c1cccc(C2N(C)CCN2C)c1`, the TGI in the test on HOP-62 NSCLC, in the test with OVCAR-5 ovarian, with CCRF-CEM leukemia, with SF-539 CNS, with SNB-19 CNS and in the test with KM12 colon was greater than 100 µM in each case. Besides, in the test on NCI-H522 lung, the TGI was greater than 100 µM.
As to `C=C(COC(C)=O)CC(/C=C(\C)CCC=C(C)C)OC(C)=O` (stereo unspecified), the TGI in the test on HOP-62 NSCLC, in the test with OVCAR-5 ovarian, with CCRF-CEM leukemia, in the test on SK-MEL-5 melanoma, with SF-539 CNS and in the test with SNB-19 CNS was greater than 100 µM each time. Besides, the TGI in the test on KM12 colon, with NCI-H522 lung and in the test with TK-10 renal was greater than 100 µM throughout.
With `CCCS(=O)(=O)c1nc(NC2CC2)cc(-c2ccc3c(ccn3C3CC(C)(C)NC(C)(C)C3)c2)n1`, the GI50 in the test with HOP-62 NSCLC is 1.73 µM; in the test with CCRF-CEM leukemia, 2.02 µM; with SK-MEL-5 melanoma, 1.72 µM; with KM12 colon, 1.83 µM; in the test on TK-10 renal, 1.52 µM. The TGI in the test with HOP-62 NSCLC stood at 3.4 µM; with CCRF-CEM leukemia, 4.8 µM; in the test with SK-MEL-5 melanoma, 3.15 µM; in the test with KM12 colon it was 3.67 µM; in the test with TK-10 renal, 2.98 µM.
